Test results published in patent US8841290B2, “Substituted tetrahydronaphthalenes, method for the production thereof, and use thereof as drugs” (Sanofi, priority 2009, dated 2014).
Values after ≈ are worked out from the molar mass of the structure shown. Read-outs that look alike come from different tables or passages of the source.

Key:
[1] = target: T1, human MCH receptor (Homo sapiens, UniProt Q99705); test: calcium mobilization assay (FLIPR), functional IC50 of MCH1R antagonists; assay type: cell-based
T1 construct: expressed in transfected cells
T1 sequence (Q99705 whole entry): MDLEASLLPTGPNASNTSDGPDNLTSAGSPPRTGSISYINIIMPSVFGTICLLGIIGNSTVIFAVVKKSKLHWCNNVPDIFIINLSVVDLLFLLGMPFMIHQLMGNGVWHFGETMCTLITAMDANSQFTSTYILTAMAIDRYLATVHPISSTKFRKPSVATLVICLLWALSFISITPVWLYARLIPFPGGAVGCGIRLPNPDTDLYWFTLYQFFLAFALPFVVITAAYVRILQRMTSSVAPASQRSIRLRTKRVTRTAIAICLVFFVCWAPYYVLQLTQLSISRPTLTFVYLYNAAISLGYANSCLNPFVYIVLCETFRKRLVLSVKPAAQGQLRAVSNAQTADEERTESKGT
Excerpt: A difference from the reference was, however, the use of the plasmid pEAK8 from EDGE Biosystems (USA) for the construction of the expression vector. The host used for the transfection was a transformed HEK cell line named “PEAK Stable Cells” (likewise from EDGE Biosystems). Functional measurements of the cellular calcium flux after addition of agonist (MCH) in the presence of ligand of the invention took place with the aid of the FLIPR apparatus from Molecular Devices (USA), using protocols of the apparatus manufacturer.

[2] = nephelometric (kinetic) solubility determination, phosphate buffer pH 7.4; assay type: physicochemical; details: for solubility kinetic: aqueous buffer, kinetic from dmso stock
Procedure: A DMSO solution of the test compound (2.5 mM; 0.5 μl) is pipetted into 200 μl of an aqueous test solution (e.g. phosphate-buffered saline, 10×, 1M, Sigma, adjusted to 10 mM, pH 7.4) in a 96-well microtiter plate, and the turbidity is measured at the resulting theoretical concentration for the test compound of 6.25 μM using a nephelometer (e.g. Nephelostar Galaxy, BMG Labtech). The concentration of the test compound in the aqueous test solution is then raised to a theoretical 12.5 μM by adding further DMSO solution (2.5 mM; 0.5 μl), and the turbidity measurement is repeated. Further additions of DMSO solutions (1 μl, 2.5 mM; 0.5 μl, 10 mM; then 9×1 μl, 10 mM resulting in theoretical concentrations of 25 μM, 50 μM, 100 μM, 150 μM, 200 μM, 250 μM, 300 μM, 350 μM, 400 μM, 450 μM and 500 μM) with turbidity measurement in between complete the measurement process.
Evaluation: The turbidity values from the nephelometer are plotted against the theoretical concentration of the test compound in the aqueous test solution. As soon as a significant turbidity is detected (e.g. 5 times above the control value of the aqueous test solution) at a theoretical concentration, the level of concentration below this is stated to be the solubility limit of the test compound in the test solution. Thus, the maximum possible measurement range emerges as values<6.25 μM, 6.25-500 μM and >500 μM.

[3] = recombinant HEK293 cell line expressing the human MCH receptor, calcium flux after addition of agonist (MCH), read-out: IC50
[4] = nephelometry, Table 8, reference compounds versus inventive examples

IC50 [1, 3]	solubility kinetic ([2]; nephelometric, Table 7)	pH 7.4 (solubility) [2, 4]	IC50 [1]	Compound	solubility kinetic [2, 4]
121 nM	153 µg/mL (≈ 331 µM)			CN(C(=O)c1ccc(OCC2CC2)cc1)[C@H]1CCc2cc(CNCC3CCOCC3)ccc2C1 [Example 1-01, 4-Cyclopropylmethoxy-N-methyl-N—((S)-6-{[(tetrahydropyran-4-ylmethyl)amino]methyl}-1,2,3,4-tetrahydronaphthalen-2-yl)benzamide]	
215 nM	> 281 µg/mL			CN(C(=O)c1ccc(OCC2CC2)cc1)[C@H]1CCc2cc(CNC[C@@H]3CCCO3)ccc2C1 [Example 1-02]	
130 nM	> 281 µg/mL			CN(C(=O)c1ccc(OCC2CC2)cc1)[C@H]1CCc2cc(CNC[C@H]3CCCO3)ccc2C1 [Example 1-03]	
116 nM	> 281 µg/mL			CN(C(=O)c1ccc(OCC2CC2)cc1)[C@H]1CCc2cc(CNCC3CCOC3)ccc2C1 (stereo partly drawn) [Example 1-04]	
125 nM	> 281 µg/mL			CN(C(=O)c1ccc(OCC2CC2)cc1)[C@H]1CCc2cc(CNCC3(C)COC3)ccc2C1 [Example 1-05]	
154 nM	> 288 µg/mL			CN(C(=O)c1ccc(OCC2CC2)cc1)[C@H]1CCc2cc(CNCC3CCCOC3)ccc2C1 (stereo partly drawn) [Example 1-07]	
126 nM	> 295 µg/mL			CN(C(=O)c1ccc(OCC2CC2)cc1)[C@H]1CCc2cc(CNCC3(C)CCOCC3)ccc2C1 [Example 1-08]	
124 nM	> 289 µg/mL			CN(C(=O)c1ccc(OCC2CC2)cc1)[C@H]1CCc2cc(CNCC3COCCO3)ccc2C1 (stereo partly drawn) [Example 1-09]	
140 nM	> 288 µg/mL			CN(C(=O)c1ccc(OCC2CC2)cc1)[C@H]1CCc2cc(CNCCC3CCCO3)ccc2C1 (stereo partly drawn) [Example 1-10]	
172 nM	> 288 µg/mL			CN(C(=O)c1ccc(OCC2CC2)cc1)[C@H]1CCc2cc(CNCC3(C)CCCO3)ccc2C1 (stereo partly drawn) [Example 1-11]	
165 nM	> 288 µg/mL			CC1CCC(CNCc2ccc3c(c2)CC[C@H](N(C)C(=O)c2ccc(OCC4CC4)cc2)C3)O1 (stereo partly drawn) [Example 1-12]	
284 nM	> 295 µg/mL			CN(Cc1ccc2c(c1)CC[C@H](N(C)C(=O)c1ccc(OCC3CC3)cc1)C2)CC1CCOCC1 [Example 1-13]	
507 nM	30 µg/mL (≈ 61.1 µM)			CCN(Cc1ccc2c(c1)CC[C@H](N(C)C(=O)c1ccc(OCC3CC3)cc1)C2)CC1CCOCC1 [Example 1-14]	
1330 nM	> 294 µg/mL			CN(C(=O)c1ccc(C2CCCCC2)cc1)[C@H]1CCc2cc(CNCC3CCOCC3)ccc2C1 [Example 2-01, 4-Cyclohexyl-N-methyl-N—((S)-6-{[(tetrahydropyran-4-ylmethyl)amino]methyl}-1,2,3,4-tetrahydronaphthalen-2-yl)benzamide]	
1360 nM	> 309 µg/mL			CN(C(=O)c1ccc(NC(=O)C(F)(F)F)cc1)[C@H]1CCc2cc(CNCC3CCOCC3)ccc2C1 [Example 2-02]	
1070 nM	> 302 µg/mL			CC1CCN(c2ccc(C(=O)N(C)[C@H]3CCc4cc(CNCC5CCOCC5)ccc4C3)cc2)CC1 [Example 2-03]	
3690 nM	15 µg/mL (≈ 30.6 µM)			O=C(N[C@H]1CCc2cc(CNCC3CCOCC3)ccc2C1)c1ccc(NC(=O)C(F)(F)F)cc1 [Example 2-04]	
248 nM	15 µg/mL (≈ 31.5 µM)			CC1CCN(c2ccc(C(=O)N[C@H]3CCc4cc(CNCC5CCOCC5)ccc4C3)cc2)CC1 [Example 2-05]	
146 nM	203 µg/mL (≈ 437 µM)			CCCCOc1ccc(C(=O)N(C)[C@H]2CCc3cc(CNCC4CCOCC4)ccc3C2)cc1 [Example 2-06]	
141 nM	> 290 µg/mL			CCCCOc1ccc(C(=O)N(C)[C@H]2CCc3cc(CNCC4CCOCC4)ccc3C2)nc1 [Example 2-07]	
220 nM	> 283 µg/mL			CCCOc1ccc(C(=O)N(C)[C@H]2CCc3cc(CNCC4CCOCC4)ccc3C2)nc1 [Example 2-08]	
360 nM	> 290 µg/mL			CC(C)COc1ccc(C(=O)N(C)[C@H]2CCc3cc(CNCC4CCOCC4)ccc3C2)nc1 [Example 2-09]	

IC50 [1, 3]	solubility kinetic ([2]; nephelometric, Table 7)	pH 7.4 (solubility) [2, 4]	IC50 [1]	Compound	solubility kinetic [2, 4]
180 nM	> 289 µg/mL			CN(C(=O)c1ccc(OCC2CC2)cn1)[C@H]1CCc2cc(CNCC3CCOCC3)ccc2C1 [Example 3, 5-Cyclopropylmethoxypyridine-2-carboxylic acid methyl-((S)-6-{[(tetrahydropyran-4-ylmethyl)amino]methyl}-1,2,3,4-tetrahydronaphthalen-2-yl)amide]	
136 nM	> 221 µg/mL			CN(C(=O)c1ccc(OCC2CC2)cc1)[C@H]1CCc2cc([C@H]3CCCN3)ccc2C1 [Example 4-01, 4-Cyclopropylmethoxy-N-methyl-N—((S)—(R)-6-pyrrolidin-2-yl-1,2,3,4-tetrahydronaphthalen-2-yl)benzamide]	
228 nM	10 µg/mL (≈ 23.9 µM)			C[C@H]1CC[C@H](c2ccc3c(c2)CC[C@H](N(C)C(=O)c2ccc(OCC4CC4)cc2)C3)N1 [Example 4-02, 4-Cyclopropylmethoxy-N-methyl-N—[(S)-6-((2R,5S)-5-methylpyrrolidin-2-yl)-1,2,3,4-tetrahydronaphthalen-2-yl]benzamide]	
788 nM	10 µg/mL (≈ 23.9 µM)			CN(C(=O)c1ccc(OCC2CC2)cc1)[C@H]1CCc2cc(C3CCCCN3)ccc2C1 (stereo partly drawn) [Example 4-03, 4-Cyclopropylmethoxy-N-methyl-N—((S)-6-piperidin-2-yl-1,2,3,4-tetrahydronaphthalen-2-yl)-benzamide]	
703 nM	> 41 µg/mL			CN(C(=O)c1ccc(OCC2CC2)cn1)[C@H]1CCc2cc(C3CCCN3)ccc2C1 (stereo partly drawn) [Example 4-04, N-Methyl-N—((S)-6-pyrrolidin-2-yl-1,2,3,4-tetrahydronaphthalen-2-yl)-5-cyclopropylmethoxypyridine-2-carboxamide]	
137 nM	> 266 µg/mL			CN1CCC[C@@H]1c1ccc2c(c1)CC[C@H](N(C)C(=O)c1ccc(OCC3CC3)cc1)C2 [Example 5-01]	
152 nM	> 273 µg/mL			CCN1CCC[C@@H]1c1ccc2c(c1)CC[C@H](N(C)C(=O)c1ccc(OCC3CC3)cc1)C2 [Example 5-02]	
858 nM	15 µg/mL (≈ 29.8 µM)			CN(C(=O)c1ccc(OCC2CC2)cc1)[C@H]1CCc2cc([C@H]3CCCN3CC3CCOCC3)ccc2C1 [Example 5-03]	
134 nM	> 273 µg/mL			C[C@H]1CC[C@H](c2ccc3c(c2)CC[C@H](N(C)C(=O)c2ccc(OCC4CC4)cc2)C3)N1C [Example 5-04]	
519 nM	168 µg/mL (≈ 376 µM)			CCN1[C@@H](c2ccc3c(c2)CC[C@H](N(C)C(=O)c2ccc(OCC4CC4)cc2)C3)CC[C@@H]1C [Example 5-05]	
370 nM	> 280 µg/mL			CCN1CCCCC1c1ccc2c(c1)CC[C@H](N(C)C(=O)c1ccc(OCC3CC3)cc1)C2 (stereo partly drawn) [Example 5-07]	
646 nM	13 µg/mL (≈ 31 µM)			CN1CCCC1c1ccc2c(c1)CC[C@H](N(C)C(=O)c1ccc(OCC3CC3)cn1)C2 (stereo partly drawn) [Example 5-10]	
127 nM	13 µg/mL (≈ 32 µM)	0.013 mg/ml		CCCCOc1ccc(C(=O)N[C@H]2CCc3cc(CN4CCCC4)ccc3C2)cc1 [Example 6-01]	
223 nM	> 268 µg/mL	>0.268 mg/ml		CC[C@H](O)COc1ccc(C(=O)N[C@H]2CCc3cc(CN4CCCC4)ccc3C2)cc1 [Example 6-02]	
327 nM	> 267 µg/mL	>0.267 mg/ml		CCCCOc1ccc(C(=O)N(C)[C@H]2CCc3cc(CN4CCCC4)ccc3C2)cc1 [Example 6-03]	
1200 nM	> 275 µg/mL	>0.275 mg/ml		CC[C@H](O)COc1ccc(C(=O)N(C)[C@H]2CCc3cc(CN4CCCC4)ccc3C2)cc1 [Example 6-04]	
153 nM	199 µg/mL (≈ 475 µM)			CN(C(=O)c1ccc(OCC2CC2)cc1)[C@H]1CCc2cc(CN3CCCC3)ccc2C1 [Example 6-05]	
75 nM	28 µg/mL (≈ 62.7 µM)			O=C(N[C@H]1CCc2cc(CN3CCCCCC3)ccc2C1)c1ccc(COC2CCC2)cc1 [Example 6-06]	
	< 4 µg/mL		332 nM	O=C(N[C@H]1CCc2cc(CN3CCCCCC3)ccc2C1)c1ccc(NC(=O)C2CCCC2)cc1 [Example 6-07]	
168 nM	< 4 µg/mL			O=C(N[C@H]1CCc2cc(CN3CCCCCC3)ccc2C1)c1ccc(OCC2CCC2)cc1 [Example 6-08]	
				O=C(N[C@H]1CCc2cc(CN3CCCC3)ccc2C1)c1ccc(-c2ccc(F)cc2)cc1 [Ref-1, reference compound]	3 µg/mL (≈ 7 µM)
				CN(C(=O)c1ccc(-c2ccc(F)cc2)cc1)[C@H]1CCc2cc(CN3CCCC3)ccc2C1 [Ref-2, reference compound]	7 µg/mL (≈ 15.8 µM)
